# In US6863883B1, “Permanent wave agent composition having dyeing effect and method for dyeing hair using the same” (Henkel Lion Cosmetics Co. Ltd., priority 1998, dated 2005):
# Tests used:
# [1] = Stability with time of a second solution of a permanent waving composition containing a direct dye (storage at 45° C.); type: physicochemical; settings: for pH (45° C.) Initial / pH (45° C.) 2 weeks / pH (45° C.) 4 weeks: 0.2% dye in second solution; for pH (45° C.) 2 weeks / pH (45° C.) 4 weeks: stored at 45° C.; for Ratio of dye that remains solubilized after 4 weeks at 45° C.: absorbance at maximum wavelength, initial value defined as 100%
# From the text: Each of an acidic dye, tar-series pigment and cationic dye which are a direct dye was weighed out so as to be 0.2% by weight in terms of the active ingredient, and added to a second solution of a permanent waving composition formulated as shown in Table 1 to stir.
# As the acidic dye. […] In the tar-series pigment, HC BLUE 2 and HC YELLOW 2 (manufactured by JAMS ROBINSON Inc.) were used. And, as the […] dye, (A): (1-methyl-1-paramethoxyphenyl)-2-(1-methane-4N-methylpyridinium)hydrazine chloride, (B): 4-dimethylaminophenylazo-2N— methyl-5N-methylimidazolium chloride and (C): 4-aminophenylazo-2N-methyl-5N-methylimidazo ium chloride (manufactured by Ciba Specialty Chemicals, Inc.) were used.
# The sample was stored at 45° C., and stability of the sample with time was evaluated for solubility of the dye in the sample, pH, absorption spectra in a visible light range.
# The evaluation for solubility of the dye was conducted based on the following criteria: • ◯: No change in solubility compared to that measured two weeks before; and • X: Precipitation of the dye
# A pH was measured with a pH meter manufactured by HORIBA Inc. Limited. Moreover, the evaluation for the absorption spectra in the visible light range was conducted by measuring an absorbance at the maximum absorbance wavelength in the absorption spectra in the visible light range using HITACHI U-3210 (using a quartz cuvette having 10 mm optical path) and calculating a ratio of the dye that remains solubilized after 4 weeks by defining the initial measured solubilized value as 100%.
# [2] = Fastness test of dyed goat hair (surfactant solution at 80° C. for 10 minutes); parameters: key: ⊚: Deeply dyed and an original white color of the goat hair is not prominent; ◯: Dyed to a degree that an original white color of the goat hair is not prominent; Δ: Dyed, but prominent in an original white color of the goat hair; X: Only an original white color of the goat hair; settings: 24 hours after dyeing, surfactant solution 80° C. 10 minutes
# Method: (§1) Thereafter, the hair which was dyed in the dyeability test was allowed to stand for 24 hours after dyeing, then immersed into 300 ml of an aqueous solution containing 0.03/sodium polyoxyethylene (2 E.O.) alkyl (12, 13) ether sulfate at 80° C. for 10 minutes. Then, the hair was adequately rinsed with warm water, dried, and fastness was evaluated by observing dyeability for the hair after the test. The evaluation was conducted based on the following criteria: • ⊚: Deeply dyed and an original white color of the goat hair is not prominent • ◯: Dyed to a degree that an original white color of the goat hair is not prominent • Δ: Dyed, but prominent in an original white color of the goat hair • X: Only an original white color of the goat hair.
# [3] = Dyeability test of second solution containing a dye on goat hair; parameters: key: ⊚: Deeply dyed and an original white color of the goat hair is not prominent; ◯: Dyed to a degree that an original white color of the goat hair is not prominent; Δ: Dyed, but prominent in an original white color of the goat hair; X: Only an original white color of the goat hair; settings: first solution 30° C. 15 minutes, then second solution with 0.2% dye
# Method: To approximately 2 g of goat hair, approximately 2 g of a first solution of a permanent waving composition was applied, and the hair was allowed to stand in a constant temperature bath at 30° C. for 15 minutes. Then, approximately 2 g of the same filtered second solution of a permanent waving composition as that described in Test Example 1 was applied to the hair, and the hair was shampooed and treated with a hair rinse conditioner, and adequately rinsed with water. After drying the hair, dyeability for the hair was evaluated.
# as §1
# [4] = Effect of water content (propylene glycol) on dyeability (Test Example 6); parameters: species or system goat; settings: 0.05% solution, pH 9
# From the text: (§2) Thereafter, each 2 g of the first solution and the second solution not containing the dye was applied to the permanently waved hair under the same condition as that described above. After the treatment with the second solution, the hair was adequately washed with water, and 2 g of a 0.05/aqueous solution of the cationic dye (B) which had been adjusted to pH 9 was applied to the hair which had been permanently waved and the untreated hair, respectively, which were allowed to stand at a treatment temperature of 30° C. for a treatment period of 30 minutes. Then, the hair was shampooed and treated with a hair rinse conditioner, adequately rinsed with water and dried, and dyeability was evaluated. Dyeability was evaluated according to a brightness of JIS standard color chart. The smaller value thereof indicates higher dyeability.
# 0.05% aqueous solutions of a cationic dye (C), each containing 0, 10, 20, 30, 40 and 50% propylene glycol respectively, were adjusted to pH 9.4 g of each solution was applied to approximately 2 g of goat hair, and the goat hair was allowed to stand in a constant temperature bath at 30° C. for 30 minutes. Then, the hair was shampooed and treated with a hair rinse conditioner, and adequately washed with water and dyeability was evaluated according to the same manner as that described in Test Example 4.
# [5] = Effect of pH of cationic dye solution on dyeability (Test Example 5); parameters: species or system goat; settings: 0.05% aqueous solution, 30 minutes
# From the text: as §2
# A 0.05% aqueous solution of a cationic dye (C) was adjusted to pH 3, 5, 7, 9 or 11, and 4 g thereof was applied to approximately 2 g of goat hair. The, hair was allowed to stand in a constant temperature bath at 30° C. for 30 minutes. Then, the hair was shampooed and treated with a hair rinse conditioner, adequately washed with water and dried, and dyeability was evaluated according to the same manner as that described in Test Example 4.
pH (45° C.) Initial [1],pH (45° C.) 2 weeks [1],pH (45° C.) 4 weeks [1],Ratio of dye that remains solubilized after 4 weeks at 45° C. [1] [%],"Stability with time in the second solution of the permanent waving composition ([1]; summary of Table 2, 45° C.)",Compound,Fastness [2],Dyeability [3],Dyeability (JIS brightness) ([4]; propylene glycol 0 wt %),Dyeability (JIS brightness) ([4]; propylene glycol 10 wt %),Dyeability (JIS brightness) ([4]; propylene glycol 20 wt %),Dyeability (JIS brightness) ([4]; propylene glycol 30 wt %),Dyeability (JIS brightness) ([4]; propylene glycol 40 wt %),Dyeability (JIS brightness) ([4]; propylene glycol 50 wt %),"Dyeability (JIS brightness) ([5]; pH 3, 30° C.)","Dyeability (JIS brightness) ([5]; pH 5, 30° C.)","Dyeability (JIS brightness) ([5]; pH 7, 30° C.)","Dyeability (JIS brightness) ([5]; pH 9, 30° C.)","Dyeability (JIS brightness) ([5]; pH 11, 30° C.)"
6.44,6.43,6.45,98.7,,O=S(=O)([O-])c1ccc(N=Nc2c(O)ccc3ccccc23)cc1.[Na+] [ORANGE 205],X,Δ,,,,,,,,,,,
6.43,6.44,6.45,,,Nc1c(N=Nc2ccc([N+](=O)[O-])cc2)c(S(=O)(=O)[O-])cc2cc(S(=O)(=O)[O-])c(N=Nc3ccccc3)c(O)c12.[Na+].[Na+] [BLACK 401],X,◯,,,,,,,,,,,

# Further lines, the compound ahead of its results:
Compound,pH (45° C.) Initial [1],pH (45° C.) 2 weeks [1],pH (45° C.) 4 weeks [1],Ratio of dye that remains solubilized after 4 weeks at 45° C. [1] [%],"Stability with time in the second solution of the permanent waving composition ([1]; summary of Table 2, 45° C.)",Fastness [2],Dyeability [3],Dyeability (JIS brightness) ([4]; propylene glycol 0 wt %),Dyeability (JIS brightness) ([4]; propylene glycol 10 wt %),Dyeability (JIS brightness) ([4]; propylene glycol 20 wt %),Dyeability (JIS brightness) ([4]; propylene glycol 30 wt %),Dyeability (JIS brightness) ([4]; propylene glycol 40 wt %),Dyeability (JIS brightness) ([4]; propylene glycol 50 wt %),"Dyeability (JIS brightness) ([5]; pH 3, 30° C.)","Dyeability (JIS brightness) ([5]; pH 5, 30° C.)","Dyeability (JIS brightness) ([5]; pH 7, 30° C.)","Dyeability (JIS brightness) ([5]; pH 9, 30° C.)","Dyeability (JIS brightness) ([5]; pH 11, 30° C.)"
Cc1ccc(Nc2ccc(O)c3c2C(=O)c2ccccc2C3=O)c(S(=O)(=O)[O-])c1.[Na+] [PURPLE 401],6.54,6.52,6.54,92.2,,X,X,,,,,,,,,,,
O=[N+]([O-])c1cc(N(CCO)CCO)ccc1NCCO [HC BLUE 2],6.43,6.44,6.15,0.00,,X,◯,,,,,,,,,,,
"Cn1cc[n+](C)c1N=Nc1ccc(N)cc1 [cationic dye (C), 4-aminophenylazo-2N-methyl-5N-methylimidazo ium chloride]",6.41,6.40,6.41,102.0,,⊚,⊚,6.5,6.8,7.0,7.7,8.5,9.0,6.5,6.0,5.7,5.3,5.0
O=[N+]([O-])c1ccccc1NCCO [HC YELLOW 2],6.43,6.42,6.44,97.6,stable with time,X,◯,,,,,,,,,,,
"COc1ccc(N(C)N=Cc2cc[n+](C)cc2)cc1 [cationic dye (A), (1-methyl-1-paramethoxyphenyl)-2-(1-methane-4N-methylpyridinium)hydrazine chloride]",6.43,6.42,6.42,99.6,,⊚,⊚,,,,,,,,,,,
